# Values joined by “and” are separate entries in the source; they are usually repeats but may differ in a detail not shown here. Equal values may be shown once. “Also recorded” adds a separate entry of the source.
# Columns and labels:
# [1] = target: P-gp (Homo sapiens, UniProt P08183); assay: P-gp transporter substrate in vitro; type: in vitro ADME
# [2] = Study B: drug interaction PK with rifampin; type: in vivo, human; conditions: for half-life: read-out: Apparent terminal t1/2, mean (SD) (converted)
# Text: Study B (rifampin) had two treatment periods. […] All treatments were received under fasted conditions.
# Healthy adults aged 19-50 years for Study A and 18-45 years for Study B were eligible to participate. […] For study B, participants had to have a BMI between 18.0 and 30 kg/m^2. Exclusion criteria for both studies included hypersensitivity to any study drug; exposure to hepatitis B virus, hepatitis C virus, or HIV; or use of any drug or substance known to affect CYP enzymes or P-gp.
# [3] = Phase 1 hepatic impairment PK study, single 100 mg dose; type: in vivo, human; conditions: 100 mg single oral dose; for AUC(0-inf) / AUC(0-t) / Cmax / Tmax / Vd/F / half-life: both sexes, human, plasma, po, 100 mg; for Tmax: read-out: Tmax, median (min-max); for Vd/F: read-out: Vz/F, mean ±SD; for half-life: read-out: t1/2, mean ±SD (converted)
# Text: The study was intended to enroll 24 male and female participants with hepatic impairment (8 mildly impaired, 8 moderately impaired, and 8 severely impaired) and 8 healthy male and female participants with normal hepatic function, aged 18 through 75 years, who were matched closely to the age, weight, and gender of the hepatically impaired groups.
# Participants with hepatic impairment were categorized according to the Child-Pugh classification. Participants with moderate hepatic impairment (Child-Pugh B classification) were not enrolled until 4 patients with mild hepatic impairment (Child-Pugh A classification) had completed the study; participants with severe hepatic impairment (Child-Pugh C classification) were not to be enrolled until 4 patients with moderate hepatic impairment had completed the study. […] Healthy participants with normal hepatic function were recruited after participants with hepatic impairment had been enrolled in the study, in order to match them as closely as possible to the hepatically impaired participants with respect to age, weight, and gender. Participants with normal hepatic function were matched specifically according to age, not to exceed 5 years between the means of the normal group and the 3 hepatically impaired groups. Weight range deviated<20% between the means of the normal group and the 3 hepatically impaired groups; and gender, as much as possible to match the ratio of the normal hepatic function group to the 3 hepatically impaired groups.
# Fasting continued for 4 hours after dosing. Because minimal to no accumulation was expected after once daily repeated dosing for ubrogepant, a single-dose study was considered adequate to satisfy the objectives of the present study.
# Sampling was also done at the following times for plasma protein binding determinations: Day 1 at 0 hour (predose) and 2 hours post dose.
# [4] = Study A: safety; type: in vivo, human
# Procedure: Study A (verapamil and ketoconazole) comprised 3 treatment periods. […] Ubrogepant was administered under fasted conditions.
# [5] = Study B: adverse events
# [6] = coadministered with rifampin 600 mg vs alone
# [7] = ubrogepant 100 mg + rifampin 600 mg
# [8] = ubrogepant 100 mg alone, listed as Ubrogepant
# [9] = Total: participants who took any investigational product
# [10] = Total: participants who took any investigative product
# [11] = Treatment A: ubrogepant 100 mg single dose, fasted
# [12] = Treatment C: 600 mg rifampin co-administered with 100 mg ubrogepant on Day 14
# Sequence of P-gp (P08183 whole entry): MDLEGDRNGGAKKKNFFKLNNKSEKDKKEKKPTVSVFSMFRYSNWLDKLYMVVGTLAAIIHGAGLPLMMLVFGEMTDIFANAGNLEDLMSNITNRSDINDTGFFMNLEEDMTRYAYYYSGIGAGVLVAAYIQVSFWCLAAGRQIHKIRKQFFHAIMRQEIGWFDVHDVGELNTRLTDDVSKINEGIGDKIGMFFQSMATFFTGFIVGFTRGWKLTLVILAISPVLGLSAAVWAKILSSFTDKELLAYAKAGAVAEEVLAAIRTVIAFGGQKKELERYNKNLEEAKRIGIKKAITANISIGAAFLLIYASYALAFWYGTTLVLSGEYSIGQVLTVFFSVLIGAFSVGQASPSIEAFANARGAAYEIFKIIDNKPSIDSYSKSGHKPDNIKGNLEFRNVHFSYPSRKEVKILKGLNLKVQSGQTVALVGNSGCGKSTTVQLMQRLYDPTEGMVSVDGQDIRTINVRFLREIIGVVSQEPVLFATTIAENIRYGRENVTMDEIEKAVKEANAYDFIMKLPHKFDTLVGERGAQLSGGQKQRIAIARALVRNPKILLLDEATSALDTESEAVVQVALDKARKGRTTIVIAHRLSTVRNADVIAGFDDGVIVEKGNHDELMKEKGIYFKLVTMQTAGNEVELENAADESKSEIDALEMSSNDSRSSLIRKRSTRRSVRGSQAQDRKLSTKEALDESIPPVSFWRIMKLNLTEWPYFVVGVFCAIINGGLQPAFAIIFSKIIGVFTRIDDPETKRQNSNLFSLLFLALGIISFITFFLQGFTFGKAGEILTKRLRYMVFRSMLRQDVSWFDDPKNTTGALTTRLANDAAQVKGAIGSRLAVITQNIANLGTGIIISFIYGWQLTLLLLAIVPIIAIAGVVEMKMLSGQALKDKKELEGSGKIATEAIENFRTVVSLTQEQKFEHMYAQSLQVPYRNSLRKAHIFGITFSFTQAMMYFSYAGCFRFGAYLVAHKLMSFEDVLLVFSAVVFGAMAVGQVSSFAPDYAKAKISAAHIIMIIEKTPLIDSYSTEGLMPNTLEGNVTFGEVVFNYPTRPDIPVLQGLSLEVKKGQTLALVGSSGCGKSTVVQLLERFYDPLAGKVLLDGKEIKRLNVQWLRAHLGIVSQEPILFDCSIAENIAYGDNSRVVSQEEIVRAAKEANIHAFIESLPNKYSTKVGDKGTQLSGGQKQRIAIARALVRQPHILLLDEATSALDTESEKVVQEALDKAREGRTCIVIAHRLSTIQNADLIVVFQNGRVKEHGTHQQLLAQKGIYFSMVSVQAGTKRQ
smiles,measurement,setting,value
"C[C@@H]1[C@H](c2ccccc2)C[C@H](NC(=O)c2cnc3c(c2)C[C@@]2(C3)C(=O)Nc3ncccc32)C(=O)N1CC(F)(F)F [ubrogepant, (3′S)-N-((3S,5S,6R)-6-methyl-2-oxo-5-phenyl-1-(2,2,2-trifluoroethyl)piperidin-3-yl)-2′-oxo-1′,2′,5,7-etrahydrospiro[cyclopenta[b]pyridine-6,3′-pyrrolo[2,3-b]pyridine]-3-carboxamide]",substrate of P-gp transporter,[1],substrate
same,reduction in ubrogepant AUC0-t,[2]; [6],78%
same,reduction in ubrogepant Cmax,[2]; [6],69%
same,AUC(0-t),"[2]; human, plasma, oral, 100 mg, ubrogepant 100 mg alone, read-out: AUC0-t, mean (SD)",1880 ng·h/mL
same,AUC(0-inf),"[2]; human, plasma, oral, 100 mg, ubrogepant 100 mg alone, read-out: AUC0-∞, mean (SD)",1910 ng·h/mL
same,half-life,"[2]; human, plasma, oral, 100 mg, ubrogepant 100 mg alone",4.4 h
same,Cmax,"[2]; human, plasma, oral, 100 mg, ubrogepant 100 mg alone, read-out: Cmax, mean (SD)",416 ng/mL
same,AUC(0-t),"[2]; human, plasma, oral, 100 mg, ubrogepant 100 mg alone, read-out: Geometric LSM AUC0-t, Reference",1720 ng·h/mL
same,AUC(0-inf),"[2]; human, plasma, oral, 100 mg, ubrogepant 100 mg alone, read-out: Geometric LSM AUC0-∞, Reference",1750 ng·h/mL
same,Cmax,"[2]; human, plasma, oral, 100 mg, ubrogepant 100 mg alone, read-out: Geometric LSM Cmax, Reference",375 ng/mL
same,Tmax,"[2]; human, plasma, oral, 100 mg, read-out: Tmax, median (range)",2 h
same,Vd/F,"[2]; human, plasma, oral, 100 mg, read-out: Vz/F",390 ± 174 L
same,AUC(0-t),"[2]; human, plasma, oral, rifampin 600 mg in combination with ubrogepant 100 mg, read-out: Geometric LSM AUC0-t, Test",378 ng·h/mL
same,AUC(0-inf),"[2]; human, plasma, oral, rifampin 600 mg in combination with ubrogepant 100 mg, read-out: Geometric LSM AUC0-∞, Test",379 ng·h/mL
same,Cmax,"[2]; human, plasma, oral, rifampin 600 mg in combination with ubrogepant 100 mg, read-out: Geometric LSM Cmax, Test",118 ng/mL
same,AUC(0-t),"[2]; human, plasma, oral, ubrogepant 100 mg + rifampin 600 mg, read-out: AUC0-t, mean (SD)",396 ng·h/mL
same,AUC(0-inf),"[2]; human, plasma, oral, ubrogepant 100 mg + rifampin 600 mg, read-out: AUC0-∞, mean (SD)",397 ng·h/mL
same,half-life,"[2]; human, plasma, oral, ubrogepant 100 mg + rifampin 600 mg",3 h
same,Cmax,"[2]; human, plasma, oral, ubrogepant 100 mg + rifampin 600 mg, read-out: Cmax, mean (SD)",136 ng/mL
same,"Apparent terminal t1/2, mean (SD)",[2]; [7],3.04 (0.64) h
same,CL/F,[2]; [7],282.87 ± 103.74 L/h
same,CL/F,[2]; ubrogepant 100 mg alone,62.77 ± 28.33 L/h
same,"Tmax, median (range)",[2]; ubrogepant 100 mg alone,2 h
same,"Apparent terminal t1/2, mean (SD)",[2]; [8],4.36 (0.75) h
same,"Tmax, median (range)",[2]; [8],2.00 (1.00-4.00) h
same,exposure of ubrogepant on co-administration,"[2]; with rifampin, a strong CYP3A4 inducer",significant reduction in ubrogepant exposure
same,"CL/F, mean ±SD",[3]; mild hepatic impairment,66.38 ± 26.15 L/h
same,AUC0-∞ (exposure) higher than in normal hepatic function,[3]; moderate hepatic impairment,52% and 50%
same,"CL/F, mean ±SD",[3]; moderate hepatic impairment,49.78 ± 23.84 L/h
same,Cmax higher than in normal hepatic function,[3]; moderate hepatic impairment,25%
same,"CL/F, mean ±SD",[3]; normal hepatic function,69.01 ± 23.54 L/h
same,AUC0-∞ (exposure) higher than in normal hepatic function,[3]; severe hepatic impairment,115%
same,"CL/F, mean ±SD",[3]; severe hepatic impairment,31.23 ± 7.49 L/h
same,Cmax higher than in normal hepatic function,[3]; severe hepatic impairment,40%
same,AUC(0-inf),"[3]; mild hepatic impairment, read-out: AUC0-inf, mean ±SD",1760 ± 775 ng·h/mL
same,AUC(0-t),"[3]; mild hepatic impairment, read-out: AUC0-t, mean ±SD",1750 ± 767 ng·h/mL
same,Cmax,"[3]; mild hepatic impairment, read-out: Cmax, mean ±SD",411 ± 190 ng/mL
same,Tmax,[3]; mild hepatic impairment,1.5 h
same,Vd/F,[3]; mild hepatic impairment,559 ± 358 L
same,half-life,[3]; mild hepatic impairment,6.56 ± 5.93 h
same,AUC(0-t),"[3]; mild-impaired, read-out: Geometric LSM AUC0-t, Test",1610 ng·h/mL
same,AUC(0-inf),"[3]; mild-impaired, read-out: Geometric LSM AUC0-∞, Test",1630 ng·h/mL
same,Cmax,"[3]; mild-impaired, read-out: Geometric LSM Cmax, Test",375 ng/mL
same,AUC(0-inf),"[3]; moderate hepatic impairment, read-out: AUC0-inf, mean ±SD",2820 ± 2060 ng·h/mL
same,AUC(0-t),"[3]; moderate hepatic impairment, read-out: AUC0-t, mean ±SD",2780 ± 2020 ng·h/mL
same,Cmax,"[3]; moderate hepatic impairment, read-out: Cmax, mean ±SD",480 ± 189 ng/mL
same,Tmax,[3]; moderate hepatic impairment,2 h
same,Vd/F,[3]; moderate hepatic impairment,365 ± 130 L
same,half-life,[3]; moderate hepatic impairment,5.95 ± 2.68 h
same,AUC(0-t),"[3]; moderate-impaired, read-out: Geometric LSM AUC0-t, Test",2300 ng·h/mL
same,AUC(0-inf),"[3]; moderate-impaired, read-out: Geometric LSM AUC0-∞, Test",2320 ng·h/mL
same,Cmax,"[3]; moderate-impaired, read-out: Geometric LSM Cmax, Test",449 ng/mL
same,AUC(0-inf),"[3]; normal hepatic function, read-out: AUC0-inf, mean ±SD",1600 ± 533 ng·h/mL
same,AUC(0-t),"[3]; normal hepatic function, read-out: AUC0-t, mean ±SD",1590 ± 530 ng·h/mL
same,Cmax,"[3]; normal hepatic function, read-out: Cmax, mean ±SD",406 ± 219 ng/mL
same,AUC(0-t),"[3]; normal hepatic function, read-out: Geometric LSM AUC0-t, Reference",1510 ng·h/mL
same,AUC(0-inf),"[3]; normal hepatic function, read-out: Geometric LSM AUC0-∞, Reference",1520 ng·h/mL
same,Cmax,"[3]; normal hepatic function, read-out: Geometric LSM Cmax, Reference",360 ng/mL
same,Tmax,[3]; normal hepatic function,1.75 h
same,Vd/F,[3]; normal hepatic function,533 ± 320 L
same,half-life,[3]; normal hepatic function,5.6 ± 3.68 h
same,AUC(0-inf),"[3]; severe hepatic impairment, read-out: AUC0-inf, mean ±SD",3330 ± 705 ng·h/mL
same,AUC(0-t),"[3]; severe hepatic impairment, read-out: AUC0-t, mean ±SD",3310 ± 704 ng·h/mL
same,Cmax,"[3]; severe hepatic impairment, read-out: Cmax, mean ±SD",509 ± 75.8 ng/mL
same,Tmax,[3]; severe hepatic impairment,1.5 h
same,Vd/F,[3]; severe hepatic impairment,248 ± 29.9 L
same,half-life,[3]; severe hepatic impairment,5.62 ± 0.62 h
same,AUC(0-t),"[3]; severe-impaired, read-out: Geometric LSM AUC0-t, Test",3250 ng·h/mL
same,AUC(0-inf),"[3]; severe-impaired, read-out: Geometric LSM AUC0-∞, Test",3270 ng·h/mL
same,Cmax,"[3]; severe-impaired, read-out: Geometric LSM Cmax, Test",505 ng/mL
same,elevations in serum transaminases or bilirubin,[4]; Study A,no participants experienced elevations in serum transaminases or bilirubin greater than or equal to 2-fold ULN
same,total TEAEs reported,"[4]; Study A, all treatment periods",39 TEAEs
same,safety and tolerability,"[4]; single oral dose coadministered with multiple doses of verapamil or ketoconazole, healthy adults",safe and generally well tolerated; also recorded: safe and generally well-tolerated
same,participants with headache,"[5]; Study B, whole trial",13.3%
same,Any AE,[5]; [9],6 (20.0) n (%)
same,Dry Mouth,[5]; [9],1 (3.3) n (%)
same,Flatulence,[5]; [9],1 (3.3) n (%)
same,Gastrointestinal Disorders,[5]; [9],4 (13.3) n (%)
same,Headache,[5]; [9],4 (13.3) n (%)
same,Nausea,[5]; [9],2 (6.7) n (%)
same,Nervous System Disorders,[5]; [9],4 (13.3) n (%)
same,AEs leading to discontinuation,[5]; [10],0 n (%)
same,Deaths,[5]; [10],0 n (%)
same,SAEs,[5]; [10],0 n (%)
same,TEAEs,[5]; [10],6 (20.0) n (%)
same,Treatment related TEAEs,[5]; [10],6 (20.0) n (%)
same,AEs leading to discontinuation,[5]; [11],0 n (%)
same,Any AE,[5]; [11],4 (13.3) n (%)
same,Deaths,[5]; [11],0 n (%)
same,Dry Mouth,[5]; [11],1 (3.3) n (%)
same,Flatulence,[5]; [11],1 (3.3) n (%)
same,Gastrointestinal Disorders,[5]; [11],2 (6.7) n (%)
same,Headache,[5]; [11],2 (6.7) n (%)
same,Nausea,[5]; [11],0 n (%)
same,Nervous System Disorders,[5]; [11],2 (6.7) n (%)
same,SAEs,[5]; [11],0 n (%)
same,TEAEs,[5]; [11],4 (13.3) n (%)
same,Treatment related TEAEs,[5]; [11],4 (13.3) n (%)
same,AEs leading to discontinuation,[5]; [12],0 n (%)
same,Any AE,[5]; [12],2 (7.1) n (%)
same,Deaths,[5]; [12],0 n (%)
same,Dry Mouth,[5]; [12],0 n (%)
same,Flatulence,[5]; [12],0 n (%)
same,Gastrointestinal Disorders,[5]; [12],2 (7.1) n (%)
same,Headache,[5]; [12],1 (3.6) n (%)
same,Nausea,[5]; [12],2 (7.1) n (%)
same,Nervous System Disorders,[5]; [12],1 (3.6) n (%)
same,SAEs,[5]; [12],0 n (%)
same,TEAEs,[5]; [12],2 (7.1) n (%)
same,Treatment related TEAEs,[5]; [12],2 (7.1) n (%)
same,safety and tolerability,[5]; single oral dose coadministered with multiple doses of rifampin,safe and generally well tolerated; also recorded: safe and generally well-tolerated

# Source: patent publication US20240180883A1, “TREATMENT OF MIGRAINE” (Allergan Pharmaceuticals International Limited, priority 2020, published 2024)
